In patent publication US10919859B2, “Benzylaminopyridylcyclopropanecarboxylic acids, pharmaceutical compositions and uses thereof” (Boehringer Ingelheim International GmbH, priority 2017, dated 2021):

Legend:
[1] = molecular target: human GPR40 receptor (Homo sapiens (Human), UniProt O14842); assay: IP1 accumulation measurements using the IPOne assay system; assay type: cell-based; settings: 1321N1 cells stably expressing human GPR40, 1 h at 37° C.
Protocol: IP1 accumulation measurements using the IPOne assay system—1321N1 cells stably expressing human GPR40 receptor (Euroscreen, Belgium) are seeded 24 h before the assay in white 384-well plates in culture medium containing 10% FCS, 1% Na-Pyruvate and 400 μg/mL G418. IP1 is assayed according to the manufacturer's description (Cisbio Bioassays, France). In brief, the assay is started by substitution of the culture medium by stimulation buffer (Hepes 10 mM, CaCl2 1 mM, MgCl2 0.5 mM, KCl 4.2 mM, NaCl 146 mM, glucose 5.5 mM and LiCl 50 mM, pH 7.4). Cells are stimulated for 1 h at 37° C., 5% CO2 by addition of the compounds that are diluted in stimulation buffer containing LiCl. Assays are stopped by adding HTRF-conjugates (IP1-d2 and Anti-IP1 cryptate Tb) and lysis buffer, provided by the manufacturer. After an incubation time of 1 h at room temperature plates are measured using an EnVision™, Perkin Elmer. The obtained fluorescence ratios at 665/615 […] are then used to calculate the pEC50 values using Assay Explorer 3.3 Software (Accelrys, Inc.) by interpolation using an IP1 reference curve and subsequent sigmoidal curve fitting allowing for a variable hill slope.

[2] = Aqueous solubility (buffer vs acetonitrile/water, LC-UV); assay type: physicochemical
Protocol: The aqueous solubility of the compounds of the invention is determined by comparing the amount dissolved in buffer to the amount in an acetonitrile/water (1/1) solution. Starting from a 10 mM DMSO stock solution aliquots are diluted with acetonitrile/water (1/1) or buffer, respectively. After 24 h of shaking, the solutions are filtrated and analyzed by LC-UV. The amount dissolved in buffer is compared to the amount in the acetonitrile solution.

[3] = pH 2.2 buffer, 24 h shaking, 2.5% DMSO, examples in this invention

Sequence of human GPR40 receptor (O14842 whole entry): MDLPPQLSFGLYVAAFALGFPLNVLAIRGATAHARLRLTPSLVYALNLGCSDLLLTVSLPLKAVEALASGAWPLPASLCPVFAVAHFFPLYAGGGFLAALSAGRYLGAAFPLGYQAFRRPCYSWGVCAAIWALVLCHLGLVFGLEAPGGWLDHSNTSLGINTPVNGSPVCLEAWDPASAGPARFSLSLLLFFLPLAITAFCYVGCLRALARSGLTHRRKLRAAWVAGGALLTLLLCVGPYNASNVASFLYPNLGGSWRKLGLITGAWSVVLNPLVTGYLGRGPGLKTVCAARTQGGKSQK

Row | SMILES | EC50 [1] | Solubility at pH value 2.2 ([2]; pH 2.2) | Solubility at pH value 2.2 [2, 3]
1 | Cc1cc(-c2nnn(C)n2)cc(C)c1-c1ccc(F)c(CNc2ccc([C@H]3C[C@@H]3C(=O)O)nc2)c1 [Example 11] | 8 nM | 56 μg/mL | –
2 | Cc1cc(OCc2ccccc2)cc(C)c1-c1ccc(F)c(CNc2ccc([C@H]3C[C@@H]3C(=O)O)nc2)c1 [Example 12] | 44 nM | 27 μg/mL | –
3 | Cc1cc(OCC(C)(C)C#N)cc(C)c1-c1ccc(F)c(CNc2ccc([C@H]3C[C@@H]3C(=O)O)nc2)c1 [Example 13] | 59 nM | 49 μg/mL | –
4 | Cc1cc(OCC(=O)O)cc(C)c1-c1ccc(F)c(CNc2ccc([C@H]3C[C@@H]3C(=O)O)nc2)c1 [Example 14] | 4520 nM | 71 μg/mL | –
5 | Cc1cc(-c2ccn(C)c(=O)c2)cc(C)c1-c1ccc(F)c(CNc2ccc([C@H]3C[C@@H]3C(=O)O)nc2)c1 [Example 16] | 29 nM | 79 μg/mL | –
6 | Cc1cc(-c2ccn(C)c(=O)c2)cc(C)c1-c1ccc(F)c(CNc2ccc([C@H]3C[C@@H]3C(=O)O)nc2)c1 [Example 17] | 18 nM | 73 μg/mL | –
7 | Cc1cc(-c2cc(=O)n(C)cn2)cc(C)c1-c1ccc(F)c(CNc2ccc([C@H]3C[C@@H]3C(=O)O)nc2)c1 [Example 18] | 23 nM | 72 μg/mL | –
8 | Cc1cc(OCCC(C)(C)O)cc(C)c1-c1ccc(F)c(CNc2ccc([C@H]3C[C@@H]3C(=O)O)nc2)c1 [Example 19] | 27 nM | 81 μg/mL | –
9 | Cc1cc(OC2CCOCC2)cc(C)c1-c1ccc(F)c(CNc2ccc([C@H]3C[C@@H]3C(=O)O)nc2)c1 [Example 20] | 35 nM | 66 μg/mL | –
10 | Cc1cc(OCC(C)(C)O)cc(C)c1-c1ccc(F)c(CNc2ccc([C@H]3C[C@@H]3C(=O)O)nc2)c1 [Example 21] | 101 nM | 82 μg/mL | –
11 | Cc1cc(CO)cc(C)c1-c1ccc(F)c(CNc2ccc([C@H]3C[C@@H]3C(=O)O)nc2)c1 [Example 22] | 206 nM | 48 μg/mL | –
12 | O=C(O)[C@H]1C[C@@H]1c1ccc(NCc2cc(-c3c(F)cc(F)cc3F)ccc2F)cn1 [Example 23] | 505 nM | 53 μg/mL | –
13 | Cc1cc(O[C@@H]2CCOC2)cc(C)c1-c1ccc(F)c(CNc2ccc([C@H]3C[C@@H]3C(=O)O)nc2)c1 [Example 24] | 44 nM | 64 μg/mL | –
14 | Cc1cc(O[C@H]2CCOC2)cc(C)c1-c1ccc(F)c(CNc2ccc([C@H]3C[C@@H]3C(=O)O)nc2)c1 [Example 25] | 28 nM | 69 μg/mL | –
15 | Cc1cc(OCC2CCOC2)cc(C)c1-c1ccc(F)c(CNc2ccc([C@H]3C[C@@H]3C(=O)O)nc2)c1 (stereo partly drawn) [Example 26] | 39 nM | 70 μg/mL | –
16 | Cc1cc(C(N)=O)cc(C)c1-c1ccc(F)c(CNc2ccc([C@H]3C[C@@H]3C(=O)O)nc2)c1 [Example 27] | 401 nM | 62 μg/mL | –
17 | COc1cc(OC)c(Cl)c(-c2ccc(F)c(CNc3ccc([C@H]4C[C@@H]4C(=O)O)nc3)c2)c1Cl [Example 28] | 30 nM | 18 μg/mL | –
18 | N#CC1(c2ccccc2-c2ccc(F)c(CNc3ccc([C@H]4C[C@@H]4C(=O)O)nc3)c2)CC1 [Example 29] | 696 nM | 57 μg/mL | –
19 | O=C(O)[C@H]1C[C@@H]1c1ccc(NCc2cc(-c3c(Cl)cccc3Cl)ccc2F)cn1 [Example 30] | 34 nM | 53 μg/mL | –
20 | COc1cc(OC)c(-c2ccc(F)c(CNc3ccc([C@H]4C[C@@H]4C(=O)O)nc3)c2)c(OC)c1 [Example 31] | 453 nM | 88 μg/mL | –

Row | SMILES | EC50 [1] | Solubility at pH value 2.2 ([2]; pH 2.2) | Solubility at pH value 2.2 [2, 3]
21 | O=C(O)[C@H]1C[C@@H]1c1ccc(NCc2cc(-c3ccc(-c4cnco4)cc3)ccc2F)cn1 [Example 32] | 174 nM | – | 56 μg/mL
22 | O=C(O)[C@H]1C[C@@H]1c1ccc(NCc2cc(-c3c(F)cc(OC4CC4)cc3F)ccc2F)cn1 [Example 33] | 297 nM | 53 μg/mL | –
23 | Nc1cc(F)c(-c2ccc(F)c(CNc3ccc([C@H]4C[C@@H]4C(=O)O)nc3)c2)c(F)c1 [Example 34] | 1450 nM | 79 μg/mL | –
24 | COc1cc(C)c(-c2ccc(F)c(CNc3ccc([C@H]4C[C@@H]4C(=O)O)nc3)c2)c(C)c1 [Example 35] | 49 nM | 63 μg/mL | –
25 | Cc1ccc(Cl)c(-c2ccc(F)c(CNc3ccc([C@H]4C[C@@H]4C(=O)O)nc3)c2)c1Cl [Example 36] | 35 nM | 43 μg/mL | –
26 | O=C(O)[C@H]1C[C@@H]1c1ccc(NCc2cc(-c3ccccc3C(F)(F)F)ccc2F)cn1 [Example 37] | 38 nM | 68 μg/mL | –
27 | N#Cc1cccc(C#N)c1-c1ccc(F)c(CNc2ccc([C@H]3C[C@@H]3C(=O)O)nc2)c1 [Example 38] | > 10000 nM | >83 μg/mL | –
28 | O=C(O)[C@H]1C[C@@H]1c1ccc(NCc2cc(-c3c(F)cccc3F)ccc2F)cn1 [Example 39] | 435 nM | 46 μg/mL | –
29 | COc1cc(F)c(-c2ccc(F)c(CNc3ccc([C@H]4C[C@@H]4C(=O)O)nc3)c2)c(F)c1 [Example 40] | 988 nM | 62 μg/mL | –
30 | Cc1cccc(C)c1-c1ccc(F)c(CNc2ccc([C@H]3C[C@@H]3C(=O)O)nc2)c1 [Example 41] | 41 nM | 59 μg/mL | –
31 | Cc1cc(C(=O)N(C)C)cc(C)c1-c1ccc(F)c(CNc2ccc([C@H]3C[C@@H]3C(=O)O)nc2)c1 [Example 42] | 231 nM | 71 μg/mL | –
32 | CNC(=O)c1cc(C)c(-c2ccc(F)c(CNc3ccc([C@H]4C[C@@H]4C(=O)O)nc3)c2)c(C)c1 [Example 43] | 358 nM | 84 μg/mL | –
33 | Cc1cc(OCC2CCOCC2)cc(C)c1-c1ccc(F)c(CNc2ccc([C@H]3C[C@@H]3C(=O)O)nc2)c1 [Example 44] | 18 nM | 66 μg/mL | –
34 | Cc1cc(C(=O)O)cc(C)c1-c1ccc(F)c(CNc2ccc([C@H]3C[C@@H]3C(=O)O)nc2)c1 [Example 45] | 3660 nM | 69 μg/mL | –
35 | Cc1cc(OCC2(O)CCS(=O)(=O)CC2)cc(C)c1-c1ccc(F)c(CNc2ccc([C@H]3C[C@@H]3C(=O)O)nc2)c1 [Example 46] | 171 nM | 102 μg/mL | –
36 | COc1cc(-c2cc(C)c(-c3ccc(F)c(CNc4ccc([C@H]5C[C@@H]5C(=O)O)nc4)c3)c(C)c2)ccn1 [Example 47] | 5 nM | 57 μg/mL | –
37 | Cc1cc(OCC2(O)CCSCC2)cc(C)c1-c1ccc(F)c(CNc2ccc([C@H]3C[C@@H]3C(=O)O)nc2)c1 [Example 48] | 56 nM | 67 μg/mL | –
38 | Cc1cc(OCC2(O)CCOCC2)cc(C)c1-c1ccc(F)c(CNc2ccc([C@H]3C[C@@H]3C(=O)O)nc2)c1 [Example 49] | 147 nM | 83 μg/mL | –
39 | CC(C)c1ccccc1-c1ccc(F)c(CNc2ccc([C@H]3C[C@@H]3C(=O)O)nc2)c1 [Example 50] | 81 nM | – | 48 μg/mL
